Test system: hair growth
Experiment: Rat Hair Growth Test (topical application to clipped skin, cumulative hair weight)
Type: in vivo, male albino Wistar rats
Procedure: The effect of compounds on hair growth was assessed using male albino Wistar rats as an animal model. The rats were chosen from as few litters as possible and were each approximately 42 days of age at the start of the test. Each rat was housed individually to prevent licking.
In each comparison, 10 rats were used in each group and hair growth was assessed as follows:
A small patch of normal skin (4cm x 4cm) on the upper back of each rat was clipped at the start and 0.3 ml of a hair growth stimulant composition (or a control) applied topically twice daily and once on Saturdays and Sundays to each clipped area. The concentration of test compound in the composition was chosen from 0.01 to 20% by weight.
In any case, this concentration will lie within the range of from 0.01 to 20% by weight as stipulated above.
Hair was clipped from the area of the patch twice weekly, collected and weighed at each time point over a standard period of 3 months, and cumulative hair weight calculated. […] A positive response, i.e. an increase of at least 10% by weight of hair after 3 months treatment, compared with a control indicates the potential of the test compound to prevent hair loss and/or reverse baldness in human subjects.
In this example, the effect of topical application of N-acetyl glycine is shown. […]

CC(=O)NCC(=O)O [N-acetyl glycine]
increase in hair growth (10% (w/v) N-acetyl glycine vs control (distilled water, pH 4.2), after 58 days, statistically significant): 23%
Mean Cumulative Hair Weight (mg) ± sd, after 58 days (10% (w/v) solution in distilled water adjusted to pH 4.2 with potassium hydroxide, topical, 0.3 ml twice daily, 58 days, control 505.9 ± 103.1, p =0.02 vs control): 622.8 ± 101.11 mg

— EP0415598A1, “Cosmetic composition” (UNILEVER PLC, priority 1989, dated 1991)
